Source: ChEMBL document CHEMBL1201862, “PubChem BioAssay data set” (2004)
Activity calls are given as the source filed them.

Columns and labels:
[1] = target: T1, Short transient receptor potential channel 4 (Mus musculus, UniProt Q9QUQ5); assay: mouse TRPC4 channel activators, dose response, cell-based, HEK293 TRPC4/mu-opioid, Fluo-4 calcium (AID 434937); assay type: functional
T1 sequence (Q9QUQ5 whole entry): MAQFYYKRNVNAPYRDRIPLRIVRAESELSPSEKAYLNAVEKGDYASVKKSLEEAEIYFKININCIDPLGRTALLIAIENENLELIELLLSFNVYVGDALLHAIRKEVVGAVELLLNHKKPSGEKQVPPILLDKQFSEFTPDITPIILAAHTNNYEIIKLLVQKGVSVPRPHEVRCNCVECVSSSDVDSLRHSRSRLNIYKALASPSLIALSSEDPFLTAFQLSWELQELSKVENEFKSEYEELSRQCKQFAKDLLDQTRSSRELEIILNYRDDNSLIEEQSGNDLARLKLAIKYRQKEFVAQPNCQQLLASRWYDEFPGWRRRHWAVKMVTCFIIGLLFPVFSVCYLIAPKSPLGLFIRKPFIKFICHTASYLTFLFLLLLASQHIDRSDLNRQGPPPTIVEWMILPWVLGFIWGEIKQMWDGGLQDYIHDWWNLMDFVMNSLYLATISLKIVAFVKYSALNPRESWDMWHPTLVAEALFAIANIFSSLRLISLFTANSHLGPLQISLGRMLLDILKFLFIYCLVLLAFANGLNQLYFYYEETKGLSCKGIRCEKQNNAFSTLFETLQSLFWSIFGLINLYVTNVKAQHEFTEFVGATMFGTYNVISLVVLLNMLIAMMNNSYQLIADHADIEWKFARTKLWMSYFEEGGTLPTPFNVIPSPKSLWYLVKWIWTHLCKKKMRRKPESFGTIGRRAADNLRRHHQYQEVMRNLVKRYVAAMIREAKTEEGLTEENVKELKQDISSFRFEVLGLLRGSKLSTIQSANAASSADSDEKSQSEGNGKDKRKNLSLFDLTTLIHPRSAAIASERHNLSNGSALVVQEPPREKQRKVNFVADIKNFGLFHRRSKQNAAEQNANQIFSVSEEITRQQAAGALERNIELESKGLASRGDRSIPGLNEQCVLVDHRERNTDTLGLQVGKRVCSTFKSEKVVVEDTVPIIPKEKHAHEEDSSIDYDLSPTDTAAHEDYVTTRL

[2] = Luminescence Cell-Based Dose Retest to Confirm Inhibitors of Cancer Stem Cells. [Related pubchem assays (depositor defined):AID2717, AID2721]; assay type: functional; details: Homo sapiens
[3] = target: T2, Ubiquitin-conjugating enzyme E2 N (Homo sapiens, UniProt P61088); assay type: functional;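 also: Dose-response confirmation in a TR-FRET assay detecting UBC13-driven polyubiquitin chain formation, inhibition measured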
T2 sequence (P61088 whole entry): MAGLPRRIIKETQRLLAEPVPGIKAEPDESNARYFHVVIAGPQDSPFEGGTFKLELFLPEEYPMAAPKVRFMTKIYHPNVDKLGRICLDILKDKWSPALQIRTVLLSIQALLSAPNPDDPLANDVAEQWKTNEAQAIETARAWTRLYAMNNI

[4] = target: T3, Microphthalmia-associated transcription factor (Homo sapiens, UniProt O75030); assay: TRPM1 promoter luciferase signal decrease, dose response, MITF inhibitor project, cell-based, SK-MEL-5, cherry-picked, set 3 (AID 493073); assay type: functional
T3 sequence (O75030 whole entry): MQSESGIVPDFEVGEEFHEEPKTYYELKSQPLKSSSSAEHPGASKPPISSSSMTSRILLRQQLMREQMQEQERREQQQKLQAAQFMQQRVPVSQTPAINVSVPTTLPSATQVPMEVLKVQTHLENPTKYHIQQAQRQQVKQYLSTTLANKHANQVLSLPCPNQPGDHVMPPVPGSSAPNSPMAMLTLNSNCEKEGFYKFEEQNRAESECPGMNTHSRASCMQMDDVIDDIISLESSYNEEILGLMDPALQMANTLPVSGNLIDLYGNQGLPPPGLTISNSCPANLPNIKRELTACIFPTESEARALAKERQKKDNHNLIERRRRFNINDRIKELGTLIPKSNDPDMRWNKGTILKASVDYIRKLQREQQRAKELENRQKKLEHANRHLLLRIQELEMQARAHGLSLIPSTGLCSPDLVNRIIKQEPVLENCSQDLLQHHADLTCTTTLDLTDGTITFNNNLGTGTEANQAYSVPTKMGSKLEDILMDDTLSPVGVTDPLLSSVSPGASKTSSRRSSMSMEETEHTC

[5] = inhibitors of intracellular T. cruzi replication, confirmation, NIH3T3 host cells, beta-gal luminescence (AID 2044); assay type: functional, cell-based;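 also: intracellular parasites grown in NIH/3T3 mouse fibroblasts as host cells; luminescent beta-galactosidase reporter signal from transgenic T. cruzi replicating inside host cells; inhibitors lower the luminescence signal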
[6] = target: Paired box protein Pax-8 (Homo sapiens, UniProt Q06710); assay: inhibitors of PAX8-driven TPO luciferase reporter, dose response, RMG-I cells, cherry-pick (AID 687027); assay type: functional, cell-based;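 also: luciferase reporter driven by Pax8 target thyroperoxidase promoter measured by SteadyGlo luminescence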
Sequence of Paired box protein Pax-8 (Q06710 whole entry): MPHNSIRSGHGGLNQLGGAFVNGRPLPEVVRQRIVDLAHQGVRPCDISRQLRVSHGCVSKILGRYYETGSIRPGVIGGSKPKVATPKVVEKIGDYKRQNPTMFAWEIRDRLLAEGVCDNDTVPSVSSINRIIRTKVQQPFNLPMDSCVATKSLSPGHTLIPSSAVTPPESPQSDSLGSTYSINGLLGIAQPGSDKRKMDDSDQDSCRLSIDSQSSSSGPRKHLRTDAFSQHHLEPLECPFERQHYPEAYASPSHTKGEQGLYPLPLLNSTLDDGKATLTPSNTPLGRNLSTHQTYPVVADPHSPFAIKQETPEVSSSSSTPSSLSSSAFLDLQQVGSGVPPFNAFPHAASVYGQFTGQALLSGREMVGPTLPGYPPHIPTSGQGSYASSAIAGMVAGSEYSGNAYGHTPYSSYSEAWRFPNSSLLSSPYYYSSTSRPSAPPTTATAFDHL

[7] = cytotoxicity toward NIH3T3 fibroblasts, dose response, counter-screen, cell-based, ATP luminescence, mouse fibroblasts (AID 2010); assay type: functional;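 also: cells exposed to compound for about 90 hours before reading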
[8] = target: T4, Exodeoxyribonuclease V (Escherichia coli (strain K12), UniProt P04993+P07648+P08394); assay: E. coli RecBCD inhibitors, dose response, counter-screen for AddAB inhibitor project, absorbance, V66 E. coli, mutant T4 phage (AID 492957); assay type: functional, cell-based, Escherichia coli str. K-12 substr. MG1655
T4 sequence (P04993 whole entry): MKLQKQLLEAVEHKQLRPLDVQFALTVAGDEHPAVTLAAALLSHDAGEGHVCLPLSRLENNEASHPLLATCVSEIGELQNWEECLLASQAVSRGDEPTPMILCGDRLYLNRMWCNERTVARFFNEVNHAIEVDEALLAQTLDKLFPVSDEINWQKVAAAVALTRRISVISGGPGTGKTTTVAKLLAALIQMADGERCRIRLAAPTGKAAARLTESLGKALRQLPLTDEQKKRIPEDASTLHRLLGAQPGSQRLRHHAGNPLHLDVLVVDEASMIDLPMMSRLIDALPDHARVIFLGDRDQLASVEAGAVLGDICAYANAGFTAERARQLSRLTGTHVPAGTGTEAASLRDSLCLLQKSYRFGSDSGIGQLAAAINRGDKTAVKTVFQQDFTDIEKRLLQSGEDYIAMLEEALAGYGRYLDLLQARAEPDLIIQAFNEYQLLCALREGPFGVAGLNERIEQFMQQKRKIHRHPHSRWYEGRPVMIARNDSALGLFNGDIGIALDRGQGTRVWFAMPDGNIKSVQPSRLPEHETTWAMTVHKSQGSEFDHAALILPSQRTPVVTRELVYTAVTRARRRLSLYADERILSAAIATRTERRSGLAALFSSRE
T4 sequence (P07648 whole entry): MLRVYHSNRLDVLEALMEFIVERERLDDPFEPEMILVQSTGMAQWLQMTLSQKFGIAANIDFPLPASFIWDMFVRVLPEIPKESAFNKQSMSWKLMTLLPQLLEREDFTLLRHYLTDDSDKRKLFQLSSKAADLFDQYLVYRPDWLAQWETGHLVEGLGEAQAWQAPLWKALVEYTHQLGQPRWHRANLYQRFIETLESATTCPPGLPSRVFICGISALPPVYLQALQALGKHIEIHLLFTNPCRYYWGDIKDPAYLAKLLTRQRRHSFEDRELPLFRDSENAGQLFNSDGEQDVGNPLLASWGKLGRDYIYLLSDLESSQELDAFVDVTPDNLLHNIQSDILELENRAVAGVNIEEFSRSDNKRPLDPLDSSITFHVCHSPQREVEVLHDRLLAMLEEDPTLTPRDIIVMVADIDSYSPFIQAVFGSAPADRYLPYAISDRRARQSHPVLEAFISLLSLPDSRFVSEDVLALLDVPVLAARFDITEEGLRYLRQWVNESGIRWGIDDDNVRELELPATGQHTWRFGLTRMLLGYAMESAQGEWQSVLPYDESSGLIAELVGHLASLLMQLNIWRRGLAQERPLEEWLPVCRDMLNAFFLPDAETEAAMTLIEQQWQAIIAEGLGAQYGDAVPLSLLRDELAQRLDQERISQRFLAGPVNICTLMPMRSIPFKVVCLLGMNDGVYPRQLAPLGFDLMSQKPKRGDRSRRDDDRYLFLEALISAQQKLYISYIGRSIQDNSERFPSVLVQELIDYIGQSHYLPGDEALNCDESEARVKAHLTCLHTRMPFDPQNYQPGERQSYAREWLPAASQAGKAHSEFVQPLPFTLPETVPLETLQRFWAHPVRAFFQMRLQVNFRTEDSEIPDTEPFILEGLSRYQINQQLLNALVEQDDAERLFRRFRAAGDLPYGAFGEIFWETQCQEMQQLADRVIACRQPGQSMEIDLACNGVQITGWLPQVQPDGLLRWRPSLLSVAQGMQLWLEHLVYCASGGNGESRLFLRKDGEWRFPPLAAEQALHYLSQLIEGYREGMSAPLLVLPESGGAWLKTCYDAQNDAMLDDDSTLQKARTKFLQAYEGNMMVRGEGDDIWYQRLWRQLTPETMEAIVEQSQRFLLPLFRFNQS
T4 sequence (P08394 whole entry): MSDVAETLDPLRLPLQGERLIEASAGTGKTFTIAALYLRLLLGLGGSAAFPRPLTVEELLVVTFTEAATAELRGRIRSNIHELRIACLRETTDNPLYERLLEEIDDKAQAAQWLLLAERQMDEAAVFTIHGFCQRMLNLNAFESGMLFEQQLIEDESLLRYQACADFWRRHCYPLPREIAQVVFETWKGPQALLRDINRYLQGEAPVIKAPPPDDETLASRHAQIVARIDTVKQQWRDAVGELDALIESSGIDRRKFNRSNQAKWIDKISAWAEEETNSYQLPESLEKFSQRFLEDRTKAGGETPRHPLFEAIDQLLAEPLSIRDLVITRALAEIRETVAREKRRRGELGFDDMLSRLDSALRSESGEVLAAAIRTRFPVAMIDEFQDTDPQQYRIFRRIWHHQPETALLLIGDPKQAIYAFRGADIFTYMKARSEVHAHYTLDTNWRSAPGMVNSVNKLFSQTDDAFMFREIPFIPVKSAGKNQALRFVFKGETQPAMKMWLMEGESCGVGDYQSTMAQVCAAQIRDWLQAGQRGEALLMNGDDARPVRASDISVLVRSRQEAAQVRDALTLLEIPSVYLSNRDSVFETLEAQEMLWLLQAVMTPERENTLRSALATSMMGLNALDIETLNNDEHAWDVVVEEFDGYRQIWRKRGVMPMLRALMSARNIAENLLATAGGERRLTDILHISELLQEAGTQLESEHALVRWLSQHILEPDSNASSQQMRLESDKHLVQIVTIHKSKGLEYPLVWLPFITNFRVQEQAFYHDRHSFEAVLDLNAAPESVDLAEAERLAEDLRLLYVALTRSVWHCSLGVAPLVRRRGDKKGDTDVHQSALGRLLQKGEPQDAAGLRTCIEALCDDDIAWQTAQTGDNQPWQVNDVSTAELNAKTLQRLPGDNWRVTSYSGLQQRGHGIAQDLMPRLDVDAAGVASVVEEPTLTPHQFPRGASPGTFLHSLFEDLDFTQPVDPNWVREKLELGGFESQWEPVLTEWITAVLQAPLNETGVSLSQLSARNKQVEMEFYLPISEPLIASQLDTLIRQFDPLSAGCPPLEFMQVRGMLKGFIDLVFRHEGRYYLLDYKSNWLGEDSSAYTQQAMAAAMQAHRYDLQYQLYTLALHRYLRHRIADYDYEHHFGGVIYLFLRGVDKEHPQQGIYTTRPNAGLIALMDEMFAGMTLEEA

[9] = Counterscreen for AddAB inhibitors: absorbance-based bacterial cell-based high throughput dose response assay for inhibitors of bacterial viability. [Related pubchem assays (depositor defined):AID435030, AID449728, AID449731, AID488942, AID488955, AID488956]; assay type: functional
[10] = growth suppression of beta-catenin-knockout colon cells, dose response, cell-based, HCT116, human colon tumor (AID 1045); assay type: functional;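 also: HCT116 colon tumor cells with beta catenin knocked out; cells exposed to compound for 60 hours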
[11] = test system: INS1; assay: beta cell apoptosis inhibitors, cytokine rescue, dose response, luminescence, retest (AID 449756); assay type: functional, cell-based; details: Rattus norvegicus;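 also: cell death triggered by IL-1 beta plus TNF-alpha plus IFN-gamma mixture; protective hits raise ATP signal compared with cytokine alone wells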
[12] = growth suppression of PTEN-null colon cells, dose response, cell-based, HCT116 PTEN knockout (AID 1047); assay type: functional;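 also: HCT116 colon tumor cells with PTEN knocked out; cells exposed to compound for 60 hours before readout; potency for loss of cell viability measured by luminescence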

SMILES: O=S(=O)(c1ccccc1)c1nnn2c1nc(NC1CCN(Cc3ccccc3)CC1)c1cc(Cl)ccc12
- EC50 [1]: 6.68 µM (active)

SMILES: FC(F)(F)c1cc(CCN2CCNC[C@@H]2Cc2ccccc2)cc(C(F)(F)F)c1
- AC50 [2]: 13.3 µM (active)
- IC50 [3]: > 20 µM (inactive)
- AC50 [4]: 12.3 µM (active)

SMILES: O=C(Nc1ccc(S(=O)(=O)NC2=NCCCCC2)cc1)c1ccc([N+](=O)[O-])s1
- EC50 [5]: 0.201 µM (active)
- AC50 [6]: 5.3 µM (active)
- EC50 [7]: 8.46 µM (active)
- AC50 [4]: 5.11 µM (active)

SMILES: CC(C)Oc1ccc(Cc2cnc(N)nc2N)cc1
- IC50 [8]: 56.3 µM (inactive)
- IC50 [9]: 36.5 µM (inactive)

SMILES: O=C(N/N=C/c1ccc([N+](=O)[O-])s1)C(O)c1ccccc1 (stereo not drawn)
- EC50 [5]: 0.306 µM (active)
- EC50 [7]: > 60 µM (inconclusive)
- EC50 [10]: 5.56 µM (active)
- AC50 [4]: 4.48 µM (active)
- AC50 [11]: 7.84 µM (active)
- EC50 [12]: 5.9 µM (active)

SMILES: O=C(C1CCCN(Cc2ccccc2)C1)N1CCc2ccccc2C1 (stereo not drawn)
- EC50 [1]: 0.133 µM (active)

SMILES: CCN(Cc1ccccc1)S(=O)(=O)c1ccc(C(=O)N(CCCN(C)C)c2nc3c(F)cccc3s2)cc1
- EC50 [1]: 2.11 µM (active)
